# Assay results published in patent US4650753A, “Novel substrates for use in measuring the concentration of kallikrein in urine” (Nitto Boseki Co., Ltd., priority 1984, dated 1987).
# Key:
# [1] = molecular target: T1, Human kallikrein in urine (HUK) (Homo sapiens, UniProt P06870); assay: Substrate specificity test: hydrolysis by human kallikrein in urine, colorimetric; assay type: biochemical; conditions: for Absorbance (O.D.), HUK: 700 nm (CHA substrate, pentacyanoamineferroate), S0 = 0.4 m mole, pH 9.0, 37° C., 5 minutes, 0.1 U/ml enzyme
# T1 construct: purchased The Green Cross Corporation Lot No. Y1003SM
# T1 sequence (P06870 25-262): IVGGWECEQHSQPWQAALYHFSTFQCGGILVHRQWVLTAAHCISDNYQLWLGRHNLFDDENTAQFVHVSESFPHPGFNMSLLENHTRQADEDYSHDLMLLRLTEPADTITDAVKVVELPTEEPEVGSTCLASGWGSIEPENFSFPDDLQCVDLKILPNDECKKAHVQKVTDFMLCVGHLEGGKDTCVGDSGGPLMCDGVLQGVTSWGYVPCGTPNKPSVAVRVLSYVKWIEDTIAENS
# Protocol: (§1) The specificities of newly synthesized substrates were tested by reacting each of them with various enzymes as follows.
# (§2) (1) Substrate solution: 2 m moles/liter.H2 O
# (§3) (2) Buffer solutions: 50 m moles of tris(hydroxymethyl)aminomethane/hydrochloric acid buffer solution and 150 m moles/liter of NaCl solution were used, and the reaction pH were specified with respect to the enzymes as follows. […]
# (§4) (4) Reaction stopper (PNA): 10%-acetic acid
# (§5) (5) Chromogenic reagent (CHA): Pentacyanoamineferroate
# (§6) (6) Method of determination:
# (§7) 0.3 Milliliter of the buffer solution and 0.1 ml of the enzyme reagent were taken in a hard glass test tube of which surface being treated with silicone, or a plastic test tube and preheated in a thermostat at 37° C. for 5 minutes so as to conduct the enzymatic reaction. Precisely 5 minutes after the reaction was started, 2.0 ml of reaction stopper solution or reaction terminating chromogenic reagent was added to terminate the enzymatic reaction. After the enzymatic reaction was completed, the reaction mixture was allowed to stand at 37° C. for 10 minutes, and then the absorbance at 405 nm or 700 nm was measured.
# Thrombin (TH) = molecular target: T2, Thrombin (TH) (Bos taurus, UniProt P00735); assay: Substrate specificity test: hydrolysis by thrombin, colorimetric; assay type: biochemical, Bovine; conditions: for Absorbance (O.D.), TH: 700 nm (CHA substrate, pentacyanoamineferroate), S0 = 0.4 m mole, pH 8.5, 37° C., 5 minutes, 4.0 NIH/ml enzyme
# T2 construct: purchased Mochida Pharmaceutical Co., Ltd. Lot No. 65146
# Protocol: as §1, §2, §3, §4, §5, §6, §7
# Plasmin (PL) = molecular target: T3, Plasmin (PL) (Homo sapiens, UniProt P00747); assay: Substrate specificity test: hydrolysis by plasmin, colorimetric; assay type: biochemical; conditions: for Absorbance (O.D.), PL: 700 nm (CHA substrate, pentacyanoamineferroate), S0 = 0.4 m mole, pH 7.8, 37° C., 5 minutes, 0.25 CU/ml enzyme
# T3 construct: purchased The Green Cross Corporation Lot No. PL-35
# T3 sequence (P00747 581-810 limits assumed): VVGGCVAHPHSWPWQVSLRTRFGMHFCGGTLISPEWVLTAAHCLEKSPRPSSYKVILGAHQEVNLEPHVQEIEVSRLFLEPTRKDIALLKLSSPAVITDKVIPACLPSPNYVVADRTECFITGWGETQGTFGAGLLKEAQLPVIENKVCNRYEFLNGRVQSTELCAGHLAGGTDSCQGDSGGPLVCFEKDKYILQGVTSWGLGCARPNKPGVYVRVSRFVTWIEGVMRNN
# T3 sequence (P00747 97-580 partner limits assumed): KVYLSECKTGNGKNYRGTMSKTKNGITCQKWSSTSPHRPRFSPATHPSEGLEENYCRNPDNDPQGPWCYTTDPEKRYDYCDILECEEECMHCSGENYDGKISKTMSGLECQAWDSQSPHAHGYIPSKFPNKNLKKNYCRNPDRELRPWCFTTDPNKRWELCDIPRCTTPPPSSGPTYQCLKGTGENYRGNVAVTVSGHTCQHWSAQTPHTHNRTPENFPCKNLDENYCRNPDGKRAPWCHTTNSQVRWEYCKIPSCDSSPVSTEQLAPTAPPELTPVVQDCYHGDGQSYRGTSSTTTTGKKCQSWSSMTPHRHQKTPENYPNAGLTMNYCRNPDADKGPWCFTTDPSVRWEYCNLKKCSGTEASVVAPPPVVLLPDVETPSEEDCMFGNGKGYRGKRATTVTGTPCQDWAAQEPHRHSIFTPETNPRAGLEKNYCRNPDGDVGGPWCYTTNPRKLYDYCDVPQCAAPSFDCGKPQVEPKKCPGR
# Protocol: as §1, §2, §3, §4, §5, §6, §7
# Urokinase (UK) = molecular target: T4, Urokinase (UK) (Homo sapiens, UniProt P00749); assay: Substrate specificity test: hydrolysis by urokinase, colorimetric; assay type: biochemical; conditions: for Absorbance (O.D.), UK: 700 nm (CHA substrate, pentacyanoamineferroate), S0 = 0.4 m mole, pH 8.2, 37° C., 5 minutes, 1000 U/ml enzyme
# T4 construct: purchased Mochida Pharmaceutical Co., Ltd. Lot No. 2C239
# Protocol: as §1, §2, §3, §4, §5, §6, §7
# [2] = PS-2103N given as 100, S0 = 0.4 m mol
"Absorbance (O.D.), HUK [1]","Relative reactivity to enzymes, HUK [1, 2]","Absorbance (O.D.), TH (Thrombin (TH))","Relative reactivity to enzymes, TH (Thrombin (TH); [2])",reactivity to thrombin (Thrombin (TH); relative to PS-2103N = 100),"Absorbance (O.D.), PL (Plasmin (PL))","Relative reactivity to enzymes, PL (Plasmin (PL); [2])",reactivity to plasmin (Plasmin (PL); relative to PS-2103N = 100),"Absorbance (O.D.), UK (Urokinase (UK))","Relative reactivity to enzymes, UK (Urokinase (UK); [2])",reactivity to urokinase (Urokinase (UK); relative to PS-2103N = 100),Substance
0.599 OD,242,0.007 OD,7,7%,0.011 OD,4,4%,0.0 OD,0,0%,H-D-Ala-Phe-Arg-CHA [PS-2103]
0.128 OD,,0.005 OD,,,0.016 OD,,,0.0 OD,,,H-D-PGlu-Phe-Arg-CHA [PS-2102]
0.244 OD,,0.016 OD,,,0.014 OD,,,0.003 OD,,,H-D-Pro-Phe-Arg-CHA [PS-2100]
